{"source": "patent US12116421B2", "about": "“Peptide-based Dopa containing adhesive gels” (KING ABDULLAH UNIVERSITY OF SCIENCE AND TECHNOLOGY, priority 2020, dated 2024)", "key": {"[1]": {"tested_on": "mouse myoblast cells (C2C12)", "experiment": "Cytocompatibility of peptide nanogels, 3D culture, MTT and live/dead staining", "assay_type": "cell-based", "conditions": "for effect on cell growth: C2C12, nanogel 3 mg/mL, compared to 2D culture; for biocompatibility with C2C12 cells: hydrogel scaffold, live/dead staining versus 2D culture", "description": "In one embodiment, cytocompatibility of the peptide nanogels was evaluated using mouse myoblast cells (C2C12). After 24 hours of incubation, cell proliferation was tested with DoIIZK, IIZDoK, IIZKDo, IIZ(KDo)2 and IIZ(KDo)3 at a concentration of 3 mg/mL to evaluate biocompatibility. The MTT (3-(4,5-dimethylthiazol-2-yl)-2,5-diphenyltetrazolium bromide) assay was used in order to quantify the number of viable cells. In one embodiment, a standard curve for a known number of cells was also plotted. In one embodiment, the test results were compared to the positive control 2D culture. A positive indication of cytocompatibility would be the survival of the cells following incubation with the peptides. For comparison, peptides DoIIZK, IIZDoK, IIZKDo, IIZ(KDo)2 and IIZ(KDo)3 were tested as part of the study. The cytocompatibilty of all peptides tested was evaluated by quantifying the survival cells by visualising the live/dead cells using calcein AM and Ethidium bromide staining.\nPoli-D Lysine (PDL) was used for 2D control. The scalebar in FIG. 35 is 200 μm. Cytocompatibility of all peptides was evaluated by quantifying the survival cells by visualising the live/dead cells using calcein AM and Ethidium homodimer staining. The live cells are stained green by calcein AM, while the dead cells are stained red by Ethidium homodimer.\nFor mouse myoblast cells (C2C12) culture expansion, C2C12 cells were cultured either in a T175 or T75 culture flask in complete DMEM media (10% FBS and 1% P/S). The cells were placed in a humidified incubator at 37° C., with 95% air and 5% CO2. Then they were subcultured using trypsin at approximately 80% confluence. Fresh culture media was added every 48 h to each well, after removing the previous media.\nFor 3D culture of mouse myoblast cells in peptide hydrogels and cell viability assay, C2C12 cells were encapsulated in peptide hydrogels in a 96-well plate.^61 Briefly, peptide solutions DopaIIZK, IIZDopaK, IIZKDopa (3 mg/mL) were added to 40 μL/well. Mouse myoblast cells (30,000 cells/well) that were re-suspended in 2×PBS were then, mixed gently with the peptide solutions. The gelation time was 1-3 min for all 5 peptides. Subsequently, the culture medium was added to the wells.\nThe viability of 3D cultured cells was assessed using the LIVE/DEAD Viability/Cytotoxicity Kit (ThermoFisher®, USA)^11. Calcein acetoxymethyl ester (Calcein-AM) is used to detect viable cells and ethidium homodimer-I (EthD-I) is used to detect dead cells. Briefly, staining with 2 μM of Calcein-AM and 4 μM of EthD-1 is performed after washing with Dulbecco's phosphate-buffered saline (D-PBS). After 30 minutes incubation, the staining solution was discarded, and 1×D-PBS was added to each well before imaging. Stained cells were imaged with an inverted confocal microscope (Zeiss® LSM 710 Inverted Confocal Microscope, Germany) or ZEISS® fluorescent microscope."}, "[2]": {"tested_on": "mouse myoblast cells (C2C12)", "experiment": "Cytocompatibility of peptide nanogels, 3D culture, MTT and live/dead staining", "assay_type": "cell-based", "conditions": "various concentrations up to the solubility limit of the peptides"}, "[3]": {"experiment": "AFM force spectroscopy adhesion measurement in liquid", "assay_type": "physicochemical", "description": "In one embodiment, the peptides were dissolved in the proper solution at a concentration of 10 mg/mL. The peptide solutions were spotted on a freshly cleaved mica sheet and the measurement was performed in liquid.\nIn one embodiment, the adhesion properties of the Dopa peptides are influenced by the construct lysine-Dopa and by the position of the catechol moiety in the peptide sequence, as indicated by the AFM force spectroscopy results in liquid. In a typical force spectroscopy curve the probe is several times approached to the surface and retracted and for every cycle of retraction the maximum force of adhesion is recorded. The incorporation of a catechol moiety near a lysine would enhance adhesion to negatively charged surfaces. FIG. 28 illustrates the effect of lysine on adhesion to negatively charged surfaces. Therefore, probes and substrates that were manifesting negative charges on their surfaces, such as the silicon probe and the freshly cleaved mica substrate, are used in the AFM spectroscopy. The setup of probe and substrate is illustrated in FIG. 29.\nThe peptides dissolved in the proper solution at 13 mM concentration each, were spotted on a freshly cleaved mica sheet and the measurement was performed in liquid. Several force curves were recorded for different buffers. […] In FIG. 30, the inset image represents the maximum extension of each peptide dissolved in water, when manually pulled between two glass slides. Also in FIG. 30, the approach part of the curve contains the important information defined as “jump to contact”, while the retract part of the F-D curve contains the adhesion force value. […] Two controls were also introduced: namely the original peptide IIZK, and an alternative peptide IIFK. To better understand the influence of Dopa on the adhesion properties of the peptide, the original short peptide IIZK would make a perfect negative control. We also introduced as a control the IIFK peptide in order to understand the effect of IIZK itself on adhesion. In FIG. 32, statistical significance expressed as p<0.01.\nAFM topography measurements were performed on a Dimension Icon SPM (Bruker®). The samples were prepared as follows: peptides were dissolved at 13 mM concentration in MilliQ® water; after 30 minutes, 20 μl of these solutions were dropped on freshly cleaved mica sheets and immediately dried with an N2 stream. Measurements were immediately performed in tapping mode in air by the use of an AFM probe AC_240TS_R3 (Olympus®) with nominal free oscillation at roughly 70 kHz and a nominal spring constant of 2 N/m. The probe was calibrated by contact-free method.^54 Free oscillation amplitude was set at 200 mV with a 5% damping during tapping mode measurement. AFM adhesion measurements were performed on a JPK Nanowizard™ III mounted on Olympus® IX-81 inverted optical microscope. A mica sheet was glued one day before the experiment with double component epoxy glue to a glass slide and enclosed in a plastic o-ring provided by the JPK company for liquid measurements. Each peptide was dissolved in MilliQ® water at a concentration of 13 mM and mixed gently. Starting with the measurement in MilliQ® water, 50 μL of the solution were dropped on the freshly cleaved mica sheet within 5 minutes from the preparation of the solution and let equilibrate for 10 minutes. After, the excess solution was removed by pipetting and discarded. Then 1 mL of MilliQ® water was added gently from the side and after 5 minutes, the sample was rinsed 3 times by additional 1 mL MilliQ® water. Finally, the sample was measured by AFM force spectroscopy (Quantitative imaging mode) with additional 1 mL MilliQ® water. The MilliQ® water was exchanged after the measurement alternatively with a water solution containing 137 mM NaCl or 10 mM Phosphate ions (a combination of Na2HPO4·7H2O and NaH2PO4·H2O to reach pH 7.4). After performing the force spectroscopy map in these two different solutions, eventually, the liquid was exchanged with 1×PBS pH 7.4. […]"}}, "note": "Where a SMILES comes first, the peptide text is derived from it. [ ]: non-standard residue; d: D form. Dopa = N[C@@H](Cc1ccc(O)c(O)c1)C(=O)O; Cha = N[C@@H](CC1CCCCC1)C(=O)O"}
{"compound": "CC[C@H](C)[C@H](NC(C)=O)C(=O)N[C@H](C(=O)N[C@@H](CC1CCCCC1)C(=O)N[C@@H](CCCCN)C(=O)N[C@@H](Cc1ccc(O)c(O)c1)C(=O)N[C@@H](CCCCN)C(=O)N[C@@H](Cc1ccc(O)c(O)c1)C(N)=O)[C@@H](C)CC", "note": "[IIZ(KDo)2] (Ac-II[Cha]K[Dopa]K[Dopa]-NH2)", "values": [{"measurement": "effect on cell growth", "setting": "[1]", "value": "did not affect cell growth"}, {"measurement": "metabolic activity of cells versus 2D cultures", "setting": "[1]; cells cultured in nanogels, 2D = cells in absence of peptides", "value": "consistently comparable to 2D cultures"}, {"measurement": "time cells stay metabolically active in nanogel", "setting": "[1]; cells grown in nanogels", "value": "metabolically active for up to day 21"}, {"measurement": "biocompatibility with C2C12 cells", "setting": "[1]", "value": "biocompatible"}, {"measurement": "cell viability / toxicity", "setting": "[2]", "value": "good viability"}]}
{"compound": "CC[C@H](C)[C@H](NC(C)=O)C(=O)N[C@H](C(=O)N[C@@H](CC1CCCCC1)C(=O)N[C@@H](CCCCN)C(=O)N[C@@H](Cc1ccc(O)c(O)c1)C(=O)N[C@@H](CCCCN)C(=O)N[C@@H](Cc1ccc(O)c(O)c1)C(=O)N[C@@H](CCCCN)C(=O)N[C@@H](Cc1ccc(O)c(O)c1)C(N)=O)[C@@H](C)CC", "note": "[IIZ(KDo)3] (Ac-II[Cha]K[Dopa]K[Dopa]K[Dopa]-NH2)", "values": [{"measurement": "effect on cell growth", "setting": "[1]", "value": "reduced cell growth"}, {"measurement": "biocompatibility with C2C12 cells", "setting": "[1]", "value": "not biocompatible"}, {"measurement": "cell viability / toxicity", "setting": "[2]", "value": "toxic"}]}
{"compound": "Ac-II[Cha]K-NH2 [IIZK, reference compound]", "values": [{"measurement": "Force of adhesion (Geometric Mean)", "setting": "[3]; 10 mM PO4, peptide 13 mM", "value": 5.681, "unit": "PN"}, {"measurement": "Force of adhesion (Geometric Mean)", "setting": "[3]; 137 mM NaCl, peptide 13 mM", "value": 100.4, "unit": "PN"}, {"measurement": "Force of adhesion (Geometric Mean)", "setting": "[3]; 1×PBS, peptide 13 mM", "value": 11.5885, "unit": "PN"}, {"measurement": "Force of adhesion (Geometric Mean)", "setting": "[3]; MilliQ water, peptide 13 mM", "value": 75.66, "unit": "PN"}, {"measurement": "increase of adhesion force by addition of NaCl", "setting": "[3]; NaCl versus MilliQ water", "value": 20, "unit": "%"}]}
{"compound": "Ac-Ile-Ile-Phe-Lys-NH2 (Ac-IIFK-NH2) [alternative peptide used as control, reference compound]", "values": [{"measurement": "Force of adhesion (Geometric Mean)", "setting": "[3]; 10 mM PO4, peptide 13 mM", "value": 8.358, "unit": "PN"}, {"measurement": "Force of adhesion (Geometric Mean)", "setting": "[3]; 137 mM NaCl, peptide 13 mM", "value": 13.217, "unit": "PN"}, {"measurement": "Force of adhesion (Geometric Mean)", "setting": "[3]; 1×PBS, peptide 13 mM", "value": 12.13, "unit": "PN"}, {"measurement": "Force of adhesion (Geometric Mean)", "setting": "[3]; MilliQ water, peptide 13 mM", "value": 89.77, "unit": "PN"}, {"measurement": "reduction of adhesion values by addition of both NaCl and PO4", "setting": "[3]; NaCl and PO4 versus MilliQ water", "value": "about 80%"}]}
